Measurements as given in ChEMBL document CHEMBL6115030, “Systematic All-Hydrocarbon Stapling Analysis for Cecropin A Generates a Potent and Stable Antimicrobial Peptide” (J Med Chem, 2025).
Converted amounts (≈) assume the structure as drawn. Bridge positions count the residues as written; N and C are the ends. Square brackets hold non-standard residues; d marks the D form. Peptide text beside a SMILES is read from it. S5 = C=CCCC[C@](C)(N)C(=O)O

How the values were obtained:
Type in all cases: functional
Pseudomonas aeruginosa = assay: Antibacterial activity against Pseudomonas aeruginosa PAO1 assessed as inhibition of bacterial growth measured after 24 hrs by broth microdilution method
Staphylococcus aureus = assay: Antibacterial activity against Staphylococcus aureus ATCC 25923 assessed as inhibition of bacterial growth measured after 24 hrs by broth microdilution method
Klebsiella pneumoniae = assay: Antibacterial activity against Klebsiella pneumoniae ATCC 13883 assessed as inhibition of bacterial growth measured after 24 hrs by broth microdilution method

Work on `CC[C@H](C)[C@H](NC(=O)CNC(=O)[C@H](CC(=O)O)NC(=O)[C@H](CCCNC(=N)N)NC(=O)[C@]1(C)CCC/C=C\CCC[C@](C)(NC(=O)[C@H](CCCCN)NC(=O)[C@H](CCC(=O)O)NC(=O)[C@@H](NC(=O)[C@H](CCCCN)NC(=O)[C@H](CCCCN)NC(=O)[C@H](Cc2ccccc2)NC(=O)[C@H](CC(C)C)NC(=O)[C@H](CCCCN)NC(=O)[C@H](Cc2c[nH]c3ccccc23)NC(=O)[C@H](CCCCN)NC(C)=O)[C@@H](C)CC)C(=O)NCC(=O)N[C@@H](CCC(N)=O)C(=O)N[C@@H](CC(N)=O)C(=O)N1)C(=O)N[C@H](C(=O)N[C@@H](CCCCN)C(=O)N[C@@H](C)C(=O)NCC(=O)N1CCC[C@H]1C(=O)N[C@@H](C)C(=O)N[C@H](C(=O)N[C@@H](C)C(=O)N[C@H](C(=O)N[C@H](C(=O)NCC(=O)N[C@@H](CCC(N)=O)C(=O)N[C@@H](C)C(=O)N[C@H](C(=O)N[C@@H](CCC(N)=O)C(=O)N[C@H](C(=O)N[C@@H](C)C(=O)N[C@@H](CCCCN)C(N)=O)[C@@H](C)CC)[C@@H](C)O)C(C)C)C(C)C)C(C)C)[C@@H](C)CC` (Ac-KWKLFKKIEK[S5]GQN[S5]RDGIIKAGPAVAVVGQATQIAK-NH2; staple (Z) 11-15) yielded an MIC (Pseudomonas aeruginosa) of 80 µM (≈ 327 µg/mL), an MIC (Staphylococcus aureus) of 25 µM (≈ 102 µg/mL) and an MIC (Klebsiella pneumoniae) of 6.25 µM (≈ 25.5 µg/mL).
In the case of `CC[C@H](C)[C@H](NC(=O)CNC(=O)[C@H](CC(=O)O)NC(=O)[C@H](CCCNC(=N)N)NC(=O)[C@@H](NC(=O)[C@]1(C)CCC/C=C\CCC[C@](C)(NC(=O)[C@H](CCC(=O)O)NC(=O)[C@@H](NC(=O)[C@H](CCCCN)NC(=O)[C@H](CCCCN)NC(=O)[C@H](Cc2ccccc2)NC(=O)[C@H](CC(C)C)NC(=O)[C@H](CCCCN)NC(=O)[C@H](Cc2c[nH]c3ccccc23)NC(=O)[C@H](CCCCN)NC(C)=O)[C@@H](C)CC)C(=O)N[C@@H](C(C)C)C(=O)NCC(=O)N[C@@H](CCC(N)=O)C(=O)N1)[C@@H](C)CC)C(=O)N[C@H](C(=O)N[C@@H](CCCCN)C(=O)N[C@@H](C)C(=O)NCC(=O)N1CCC[C@H]1C(=O)N[C@@H](C)C(=O)N[C@H](C(=O)N[C@@H](C)C(=O)N[C@H](C(=O)N[C@H](C(=O)NCC(=O)N[C@@H](CCC(N)=O)C(=O)N[C@@H](C)C(=O)N[C@H](C(=O)N[C@@H](CCC(N)=O)C(=O)N[C@H](C(=O)N[C@@H](C)C(=O)N[C@@H](CCCCN)C(N)=O)[C@@H](C)CC)[C@@H](C)O)C(C)C)C(C)C)C(C)C)[C@@H](C)CC` (Ac-KWKLFKKIE[S5]VGQ[S5]IRDGIIKAGPAVAVVGQATQIAK-NH2; staple (Z) 10-14), the MIC (Pseudomonas aeruginosa) is reported as greater than 100 µM, the MIC (Staphylococcus aureus) is reported as greater than 100 µM and the MIC (Klebsiella pneumoniae) is reported as greater than 100 µM.
`CC[C@H](C)[C@H](NC(=O)CNC(=O)[C@H](CC(=O)O)NC(=O)[C@H](CCCNC(=N)N)NC(=O)[C@@H](NC(=O)[C@H](CC(N)=O)NC(=O)[C@]1(C)CCC/C=C\CCC[C@](C)(NC(=O)[C@@H](NC(=O)[C@H](CCCCN)NC(=O)[C@H](CCCCN)NC(=O)[C@H](Cc2ccccc2)NC(=O)[C@H](CC(C)C)NC(=O)[C@H](CCCCN)NC(=O)[C@H](Cc2c[nH]c3ccccc23)NC(=O)[C@H](CCCCN)NC(C)=O)[C@@H](C)CC)C(=O)N[C@@H](CCCCN)C(=O)N[C@@H](C(C)C)C(=O)NCC(=O)N1)[C@@H](C)CC)C(=O)N[C@H](C(=O)N[C@@H](CCCCN)C(=O)N[C@@H](C)C(=O)NCC(=O)N1CCC[C@H]1C(=O)N[C@@H](C)C(=O)N[C@H](C(=O)N[C@@H](C)C(=O)N[C@H](C(=O)N[C@H](C(=O)NCC(=O)N[C@@H](CCC(N)=O)C(=O)N[C@@H](C)C(=O)N[C@H](C(=O)N[C@@H](CCC(N)=O)C(=O)N[C@H](C(=O)N[C@@H](C)C(=O)N[C@@H](CCCCN)C(N)=O)[C@@H](C)CC)[C@@H](C)O)C(C)C)C(C)C)C(C)C)[C@@H](C)CC` (Ac-KWKLFKKI[S5]KVG[S5]NIRDGIIKAGPAVAVVGQATQIAK-NH2; staple (Z) 9-13) gave an MIC (Pseudomonas aeruginosa) greater than 100 µM, an MIC (Staphylococcus aureus) of 1.56 µM (≈ 6.3 µg/mL) and an MIC (Klebsiella pneumoniae) of 6.25 µM (≈ 25.2 µg/mL).
With `CC[C@H](C)[C@H](NC(=O)CNC(=O)[C@H](CC(=O)O)NC(=O)[C@H](CCCNC(=N)N)NC(=O)[C@@H](NC(=O)[C@H](CC(N)=O)NC(=O)[C@H](CCC(N)=O)NC(=O)[C@]1(C)CCC/C=C\CCC[C@](C)(NC(=O)[C@H](CCCCN)NC(=O)[C@H](CCCCN)NC(=O)[C@H](Cc2ccccc2)NC(=O)[C@H](CC(C)C)NC(=O)[C@H](CCCCN)NC(=O)[C@H](Cc2c[nH]c3ccccc23)NC(=O)[C@H](CCCCN)NC(C)=O)C(=O)N[C@@H](CCC(=O)O)C(=O)N[C@@H](CCCCN)C(=O)N[C@@H](C(C)C)C(=O)N1)[C@@H](C)CC)C(=O)N[C@H](C(=O)N[C@@H](CCCCN)C(=O)N[C@@H](C)C(=O)NCC(=O)N1CCC[C@H]1C(=O)N[C@@H](C)C(=O)N[C@H](C(=O)N[C@@H](C)C(=O)N[C@H](C(=O)N[C@H](C(=O)NCC(=O)N[C@@H](CCC(N)=O)C(=O)N[C@@H](C)C(=O)N[C@H](C(=O)N[C@@H](CCC(N)=O)C(=O)N[C@H](C(=O)N[C@@H](C)C(=O)N[C@@H](CCCCN)C(N)=O)[C@@H](C)CC)[C@@H](C)O)C(C)C)C(C)C)C(C)C)[C@@H](C)CC` (Ac-KWKLFKK[S5]EKV[S5]QNIRDGIIKAGPAVAVVGQATQIAK-NH2; staple (Z) 8-12) the MIC (Pseudomonas aeruginosa) was greater than 100 µM, the MIC (Staphylococcus aureus) was 6.25 µM (≈ 25.8 µg/mL) and the MIC (Klebsiella pneumoniae) was 6.25 µM (≈ 25.8 µg/mL).
For `CC[C@H](C)[C@H](NC(=O)CNC(=O)[C@H](CC(=O)O)NC(=O)[C@H](CCCNC(=N)N)NC(=O)[C@@H](NC(=O)[C@H](CC(N)=O)NC(=O)[C@H](CCC(N)=O)NC(=O)CNC(=O)[C@]1(C)CCC/C=C\CCC[C@](C)(NC(=O)[C@H](CCCCN)NC(=O)[C@H](Cc2ccccc2)NC(=O)[C@H](CC(C)C)NC(=O)[C@H](CCCCN)NC(=O)[C@H](Cc2c[nH]c3ccccc23)NC(=O)[C@H](CCCCN)NC(C)=O)C(=O)N[C@@H]([C@@H](C)CC)C(=O)N[C@@H](CCC(=O)O)C(=O)N[C@@H](CCCCN)C(=O)N1)[C@@H](C)CC)C(=O)N[C@H](C(=O)N[C@@H](CCCCN)C(=O)N[C@@H](C)C(=O)NCC(=O)N1CCC[C@H]1C(=O)N[C@@H](C)C(=O)N[C@H](C(=O)N[C@@H](C)C(=O)N[C@H](C(=O)N[C@H](C(=O)NCC(=O)N[C@@H](CCC(N)=O)C(=O)N[C@@H](C)C(=O)N[C@H](C(=O)N[C@@H](CCC(N)=O)C(=O)N[C@H](C(=O)N[C@@H](C)C(=O)N[C@@H](CCCCN)C(N)=O)[C@@H](C)CC)[C@@H](C)O)C(C)C)C(C)C)C(C)C)[C@@H](C)CC` (Ac-KWKLFK[S5]IEK[S5]GQNIRDGIIKAGPAVAVVGQATQIAK-NH2; staple (Z) 7-11), the MIC (Pseudomonas aeruginosa) was greater than 100 µM, the MIC (Staphylococcus aureus) was greater than 100 µM and the MIC (Klebsiella pneumoniae) was 6.25 µM (≈ 25.4 µg/mL).
For `CC[C@H](C)[C@H](NC(=O)CNC(=O)[C@H](CC(=O)O)NC(=O)[C@H](CCCNC(=N)N)NC(=O)[C@@H](NC(=O)[C@H](CC(N)=O)NC(=O)[C@H](CCC(N)=O)NC(=O)CNC(=O)[C@@H](NC(=O)[C@]1(C)CCC/C=C\CCC[C@](C)(NC(=O)[C@H](Cc2ccccc2)NC(=O)[C@H](CC(C)C)NC(=O)[C@H](CCCCN)NC(=O)[C@H](Cc2c[nH]c3ccccc23)NC(=O)[C@H](CCCCN)NC(C)=O)C(=O)N[C@@H](CCCCN)C(=O)N[C@@H]([C@@H](C)CC)C(=O)N[C@@H](CCC(=O)O)C(=O)N1)C(C)C)[C@@H](C)CC)C(=O)N[C@H](C(=O)N[C@@H](CCCCN)C(=O)N[C@@H](C)C(=O)NCC(=O)N1CCC[C@H]1C(=O)N[C@@H](C)C(=O)N[C@H](C(=O)N[C@@H](C)C(=O)N[C@H](C(=O)N[C@H](C(=O)NCC(=O)N[C@@H](CCC(N)=O)C(=O)N[C@@H](C)C(=O)N[C@H](C(=O)N[C@@H](CCC(N)=O)C(=O)N[C@H](C(=O)N[C@@H](C)C(=O)N[C@@H](CCCCN)C(N)=O)[C@@H](C)CC)[C@@H](C)O)C(C)C)C(C)C)C(C)C)[C@@H](C)CC` (Ac-KWKLF[S5]KIE[S5]VGQNIRDGIIKAGPAVAVVGQATQIAK-NH2; staple (Z) 6-10), the MIC (Pseudomonas aeruginosa) was greater than 100 µM, the MIC (Staphylococcus aureus) was greater than 100 µM and the MIC (Klebsiella pneumoniae) was greater than 100 µM.
